Test results published in patent publication US9326927B2, “Use of cannabinoid compounds for stimulating melanogenesis” (L'OREAL, priority 2011, dated 2016).

Tests used:
[1] = tested on: Normal human epidermal melanocytes (NHEMs); assay: Determination of the melanin content of the melanocytes (Example 1); assay type: cell-based; parameters: key to amount of melanin in NHEM cells, mean: fold of untreated control melanin amount (control = 1); details: for effect of receptor antagonist on the propigmenting effect of mAEA, in words: antagonist in combination with mAEA 1 μM (SR1 0.1 μM); for effect on amount of melanin in the melanocytes (NHEMs), in words: 1 μM, by means of the CB1 receptor
Protocol: Normal human epidermal melanocytes (NHEMs) isolated from foreskins and supplied by Promocell (Heidelberg, Germany) are cultured for 24 h at 37° C. in a humid atmosphere at 5% CO2 in an appropriate culture medium M2 (Promocell).
The AEA and the other compounds are added directly to the culture medium. Twenty-four hours after each treatment, the cell viability was measured using Trypan blue exclusion dye (Maccarone et al., 2003).
The mAEA, the AEA and the ACEA are tested in vitro at a concentration of 1 μM and compared. The mAEA is also used at this concentration when it is used in combination with SR1 at 0.1 μM.
Moreover, the mAEA was also tested, alone, at concentrations of 0.5, 1.0, 1.5, 2.0, 2.5 and 3.0 μM.
The amount of melanin present in the NHEM cells is measured according to a method known to those skilled in the art (Xiao et al., Arch Dermatol Res 2007; 299: 245-57). According to this method, the NHEM cells are treated with trypsin and washed twice with a phosphate buffered saline. The samples are then resuspended in 200 μl of MilliQ water, and 1 ml of an ethanol: ether mixture (1:1, vol/vol) is added in order to remove the opaque substances other than melanin. After 15 minutes, the samples are centrifuged at 600 g for 5 minutes. The pellet is air-dried and dissolved in 200 μl of 1 N sodium hydroxide. The samples are then heated at 80° C. for one hour and cooled.
The amount of melanin is determined by spectrophotometry at 450 nm using the standard melanin controls supplied by Sigma Chemical Co., so as to verify the linearity range of the test. The amount of melanin is expressed relative to the control.
The results given are the means, with their standard deviations, of 3 independent tests, each carried out in triplicate. They were compared by analysis of variance (ANOVA).

[2] = tested on: pigmented reconstructed epidermises (normal human melanocytes and keratinocytes); assay: Propigmenting effect on pigmented reconstructed epidermises (PREs), melanin quantified by image analysis (Example 3); assay type: cell-based
Protocol: Pigmented epidermises are reconstructed on a collagen support (BPER [biodressing for reconstructed epidermis]) using normal human melanocytes and keratinocytes.
The epidermises are obtained after 8 days of reconstruction; the melanocytes chosen are of estimated phototype IV.1.
Some epidermises are treated daily with the placebo, others with the test product mAEA at different concentrations (1 μM and 3 μM).
Each experimental condition is performed in quadruplicate.
The histological quality of the epidermises after treatment is evaluated on histological sections after HES staining in order to determine the impact of the treatment on the epidermises. Also, the physiology of the melanocytes is studied in order to detect any melano-cytotoxicity. If no histological modification nor any melanotoxic effect of the product evaluated is noted, the pigmentation is quantified by quantifying the melanin on histological sections by image analysis.
(§1) Quantification of the pigmentation by microscopic quantification of the melanin is then carried out and makes it possible to illustrate a propigmenting activity of the test compound.
The melanin present in the epidermis is stained on histological sections (Fontana Masson staining) and then quantified by image analysis. For this, each epidermis is photographed over its entire width using a microscope. Approximately 10 images are acquired per epidermis (white light, ×20 magnification).
The area taken up by melanin is quantified using custom-designed image analysis software. Briefly, each image is segmented into 4 zones according to their color (lumen, stratum corneum, live epidermis and BPER). […] The pixels occupied by the melanin in the whole epidermis or the live layers are then quantified.
This quantification takes into account the area taken up by the melanin and also the average localization of the melanin in the epidermis.
The results below are expressed as percentage relative stimulation with respect to the control cultured in standard coculture medium.

[3] = tested on: Primary human melanocytes (NHEMs); assay: Melanin production in NHEMs (Example 4); assay type: cell-based; details: 1 μM, 72 h
Protocol: (§2) Primary human melanocytes (NHEMs) were seeded into 24-well plates in the presence (coculture) of normal human epidermal keratinocytes (NHEKs) and then cultured for 24 h. The cells were then treated with nothing (negative control), IBMX (positive control, 200 μM), or methanandamide (mAEA, 1 μM).
(§3) After treatment, the cells were incubated for 72 h, all the experimental conditions having been carried out in triplicate.
(§4) After 72 h of incubation, the cells were lysed with a 0.5 N NaOH solution in order to extract the melanin.
as §1
(§5) The optical density of the samples was measured at 405 nm, with reference to an exogenous melanin range (standard melanin curve 0.39 to 100 μg/ml).

NHEKs+NHEMs coculture = assay: Melanin production in NHEM-NHEK coculture (Example 4); assay type: cell-based, human; details: 72 h
Protocol: as §2, §3, §4, §1, §5

[4] = expressed relative to the control, compound alone at 1 μM, mean of 3 independent tests

N-[(1S)-endo-1,3,3-trimethy-1-bicyclo[2.2.1]heptan-2-yl]-5-(4-choro-3-methylphenyl)-1-(4-methylbenzyl)pyrazole-3-carboxamide [SR2, reference compound]
effect of receptor antagonist on the propigmenting effect of mAEA, in words [1]: does not, on the other hand, prevent mAEA from having this effect

CCCCC/C=C\C/C=C\C/C=C\C/C=C\CCCC(=O)NC(C)CO (stereo not drawn) [mAEA, R(+)-arachidonyl-1′-hydroxy-2′-propylamide]
effect on amount of melanin in the melanocytes (NHEMs), in words [1]: significantly increase the amount of melanin
dose/effect relationship of melanin production in NHEM cells, in words ([1]; 0.5 to 3.0 μM): dose-dependent increase in melanin production
amount of melanin in NHEM cells, mean [1, 4]: 2.80
amount of melanin in NHEM cells, mean ([1]; relative to the control, mAEA 1 μM in combination with SR1 0.1 μM): 1.22
amount of melanin in NHEM cells, mean ([1]; relative to the control, mAEA alone 0.5 μM): 1.75
amount of melanin in NHEM cells, mean ([1]; relative to the control, mAEA alone 1.5 μM): 3.30
amount of melanin in NHEM cells, mean ([1]; relative to the control, mAEA alone 2 μM): 3.34
amount of melanin in NHEM cells, mean ([1]; relative to the control, mAEA alone 2.5 μM): 3.75
amount of melanin in NHEM cells, mean ([1]; relative to the control, mAEA alone 3 μM): 4.13
amount of melanin in NHEM cells, mean ([1]; relative to the control, mAEA in combination with SR2): 2.34
melanin, percentage relative stimulation with respect to the control ([2]; 1 μM SYST D17): 315%
melanin production in pigmented reconstructed epidermises, in words ([2]; 1 μM and 3 μM, daily treatment): very large increase in melanin production
melanin, percentage relative stimulation with respect to the control ([2]; second line, printed 1 μM SYST D17): 356.25%
melanin production in NHEM cells, in words [3]: increase in melanin production
melanin production in NHEK+NHEM cells, in words (NHEKs+NHEMs coculture; 1 μM): increase in melanin production
melanin production in NHEKs+NHEMs compared with NHEMs alone and IBMX positive control, in words (NHEKs+NHEMs coculture; mAEA 1 μM vs IBMX 200 μM): greater than in NHEMs alone, even exceeding that of the IBMX positive control

Cc1c(C(=O)NN2CCCCC2)nn(-c2ccc(Cl)cc2Cl)c1-c1ccc(Cl)cc1 [SR1, N-piperidino-5-(4-chlorophenyl)-1-(2,4-dichlorophenyl)-4-methyl-3-pyrazole carboxamide, reference compound]
effect of receptor antagonist on the propigmenting effect of mAEA, in words [1]: prevents mAEA from having its propigmenting effect

CCCCC/C=C\C/C=C\C/C=C\C/C=C\CCCC(=O)NCCO [Anandamide, N-arachidonoylethanolamine]
effect on amount of melanin in the melanocytes (NHEMs), in words [1]: significantly increase the amount of melanin
amount of melanin in NHEM cells, mean [1, 4]: 2.09

CCCCC/C=C\C/C=C\C/C=C\C/C=C\CCCC(=O)NCCCl [ACEA, Arachidonyl-2′-chloroethylamide]
effect on amount of melanin in the melanocytes (NHEMs), in words [1]: significantly increase the amount of melanin
amount of melanin in NHEM cells, mean [1, 4]: 2.14
